Measurements from patent US9891212B2, “Screening method, a kit, a method of treatment and a compound for use in a method of treatment” (ATROGI AB, priority 2013, dated 2018).

Columns and labels:
L6-myotubes [1] = experiment: 3H-2-deoxy-glucose uptake in L6-myotubes; assay type: cell-based; conditions: for glucose uptake, isoprenaline versus BRL 37344: 2 h stimulation with 10^-5 M, n=7, FIG. 9
Method: Glucose uptake was measured in L6-myotubes grown in 12-well plates using ^3H-2-dexoy-glucose as previously described (Nevzorova et al. 2002) with minor modifications. L6-cells were differentiated for 7-8 days before the experiment, serum-starved over night in media containing 0.5% fatty-acid free BSA and stimulated with BRL 373 44 or Isoprenaline totally 2 h, unless otherwise stated. SQ 22 536 or ICI 118 551 were added 30 min before stimulation. 25 min before the end of the experiment, cells were washed twice in warm PBS and kept in glucose-free DMEM together with the different drugs for 10 min before 50 nM ^3H-2-deoxy-glucose was added for additional 6 minutes. The reaction was terminated by washing the cells in ice-cold PBS three times. Cells were lysed in 0.2 NaOH for 1 h in 60° C. and the radioactivity detected by liquid scintillation (scintillation buffer Emulsifier Safe, Perking Elmer and analysis is a Tri-Carb® 2800TR from Perkin Elmer).

β3-KO mice [2] = experiment: in vivo 3H-2-deoxy-glucose uptake in soleus and gastrocnemius muscle; conditions: 1 mg/kg i.p., CPM per gram tissue divided by CPM per gram blood, FIG. 14
Method: β3-KO mice on FVB background, 12-16 weeks old, were anaesthetised with pentobarbital (67 mg/kg). BRL 37344 (1 mg/kg) or saline was injected i.p. about 10 min after induction of anaesthesia. After 20 min ^3H-2-deoxy-glucose (16 nM/130 μCi per kg of mouse) diluted in 100 μl saline was injected. Mice were killed 1 h after injection of 2-deoxy-glucose. Blood sample was taken from heart and soleus and gastrocnemius were dissected out. Tissues were weighed and dissolved in 0.5 M NaOH in 60° C. Radioactivity was detected as described above. The results are expressed as CPM per gram tissue divided by CPM per gram blood.

L6 skeletal muscle cells = experiment: cAMP levels in L6 skeletal muscle cells (alpha-screen cAMP kit); assay type: cell-based
Method: L6 myocytes were obtained from ATCC and grown in Dulbecco's Modified Eagle's Medium (DMEM) containing 4.5 g/L glucose supplemented with 10% fetal bovine serum (FBS), 2 mM L-Glutamine, 50 U/ml penicillin, 50 μg/ml streptomycin and 10 mM HEPES. Cells were plated in 12- or 96-well plates and after reaching confluence differentiation was induces by differentiation media containing 2% FBS.
L6-cells were differentiated in 96-well plates and after 7 days of differentiation cells serum-starved and treated with drugs in stimulation buffer (HBSS supplemented with 1% BSA and 5 mM HEPES, pH 7.4). To end the reaction cells were harvested in ice-cold lysis buffer (0.3% Tween-20, 5 mM Hepes, 1% BSA and 1 mM IBMX, pH 7.4). Levels of cAMP were detected by an alpha-screen cAMP kit (6760625R from Perkin Elmer) according to the manufactures instruction.
The cAMP was measured in L6-myotubes after 2 h stimulation. The results (FIG. 3) indicate that BRL 37344 cannot be considered a general beta2-adrenergic receptor agonist (or beta1-adrenergic receptor) stimulating cAMP in skeletal muscle cells.

L6-myotubes [3] = experiment: western blot for detection of phospho-CREB in L6-myotubes; assay type: cell-based; conditions: 10^-5 M, 10 to 120 min, FIGS. 5 and 6
Method: L6-myotubes were harvested and subjected to western blot for detection of phospho-CREB. For measuring protein phosphorylation of a target downstream cAMP cells were treated as indicated and harvested in pre-warmed SDS sample buffer containing 50 mM dithiothreitol, sonicated and boiled for 5 min. Proteins were separated on a 12% polyacrylamide gel for 3 h at 80 V. The proteins were transferred onto Hypbond-P PVDF membrane (GE Healthcare) which was blocked in milk for 1 h and probed with primary antibodies. All antibodies were purchased from Cell Signaling and diluted 1:1000: Primary antibodies were detected using a secondary antibody (horseradish peroxidase-linked anti-rabbit IgG, #7074) diluted 1:2000 and enhanced chemiluminescence (ECL plus, GE Healthcare). Photos were taken in a CCD camera (Fuji Las 1000) and quantification performed in software ImageJ.
Lanes 1 and 7=basal, 2-6=isoprenaline treatment for 10, 15, 30, 60 and 120 min, 8-12=BRL 37344 treatment for 10, 15, 30, 60 and 120 min. […] Quantification of n=3 blots (FIG. 6).

GLUT4 = GLUT4 translocation to the plasma membrane in L6 cells (immunofluorescence); assay type: cell-based; conditions: 2 h stimulation, FIGS. 12 and 13
Method: L6 cells were grown in 8-well culture chamber slides (BD Biosciences, Franklin Lakes, BJ), serum starved overnight and stimulated with insulin, isoproterenol or BRL 37344 for 2 h. Cells were fixed for 5 min with 4% formaldehyde in PBS, quenched with 50 mM glycine in PBS for 10 min, blocked with 5% BSA in PBS and incubated with primary antibodies (diluted in 1.5% BSA in PBS) overnight at 4° C. As primary antibody anti GLUT4 binding to extracellular parts of GLUT4 (Santa Cruz Biotechnology, sc-1606, dilution 1:125) was used. Cells were then washed with PBS and incubated with Alexa Fluor® 488-conjugated goat anti-rabbit IgG (1:500 dilution, 1.5% BSA in PBS) for 1 h. Slides were mounted with ProLong® Gold antifade reagent (Invitrogen) and fluorescence micrographs were obtained (FIG. 12).

β3-KO mice [4] = experiment: blood glucose over time (glucose tolerance); assay type: in vivo; conditions: 1 mg per kg i.p., FIG. 15
Method: FIG. 15 is a graph showing variation over time of blood glucose (in mM) in β3-KO mice after ip injection of either saline or BRL 37344 (1 mg per kg). P<0.01 for the effect of BRL 37344 with two-way ANOVA.

Row | SMILES | glucose uptake, isoprenaline versus BRL 37344 (L6-myotubes [1]) | glucose uptake in both skeletal muscles relative to control mice (β3-KO mice [2]) | BRL 37344 stimulated glucose uptake with beta2 inhibition (L6-myotubes [1]; BRL 37344 10 μM, 2 h, in presence of 10 μM ICI 118551, FIG. 11) | glucose uptake at different concentrations (L6-myotubes [1]; L6-myotubes, 2 h stimulation, n=7, FIG. 8) | glucose uptake at different time points (L6-myotubes [1]; L6-myotubes, BRL 37344 10 μM, FIG. 7) | BRL 37344 stimulated glucose uptake with inhibition of adenylyl cyclase (L6-myotubes [1]; SQ 22536 500 μM added 30 min before stimulation, FIG. 10) | cAMP levels at different concentrations (L6 skeletal muscle cells; L6-myotubes, 2 h stimulation, FIG. 3) | cAMP at time points examined (L6 skeletal muscle cells; L6 skeletal muscle cells, 0 min to 25 min of contact, FIG. 2) | cAMP over basal (L6 skeletal muscle cells; L6 skeletal muscle cells, FIG. 1) | phospho-CREB (downstream target of cAMP) (L6-myotubes [3]) | GLUT4 translocation to the plasma membrane (GLUT4) | maximum blood glucose compared to control mice (β3-KO mice [4])
1 | CC(C)NCC(O)c1ccc(O)c(O)c1 (racemic) [isoprenaline, (RS)-4-[1-hydroxy-2-(isopropylamino)ethyl]benzene-1,2-diol] | no significant difference between the responses | – | – | – | – | – | – | – | – | – | – | –
2 | C[C@H](Cc1ccc(OCC(=O)O)cc1)NC[C@H](O)c1cccc(Cl)c1 (relative stereo) [BRL 37344, (±)-(R*,R*)-[4-[2-[[2-(3-chlorophenyl)-2-hydroxyethyl]amino]propyl]phenoxy]acetic acid] | no significant difference between the responses | 2-3 times higher | fully inhibits | increases glucose uptake | increases during time | does not decrease | no or little impact on cAMP levels | At no time point examined did BRL 37344 increase cAMP | did not significantly increase cAMP over basal | not affected | increase of GLUT4 translocation to the plasma membrane | substantially reduced
